# Source: ChEMBL document CHEMBL5029164, “JNJ-67569762, A 2-Aminotetrahydropyridine-Based Selective BACE1 Inhibitor Targeting the S3 Pocket: From Discovery to Clinical Candidate” (J Med Chem, 2021)
# Legend:
# [1] = Inhibition of calcium channel (unknown origin); set-up: species or system Homo sapiens
# [2] = Cyanide reactivity in human liver microsomes; format: ADME
# [3] = Metabolic stability in dog liver microsomes assessed as intrinsic clearance; format: ADME, Canis lupus familiaris, Microsome; settings: read-out: CLH
# [4] = target: Voltage-gated inwardly rectifying potassium channel KCNH2 (Homo sapiens, UniProt Q12809); test: Inhibition of human ERG expressed in CHO cells by patch-clamp assay; format: cell-based
# [5] = Reduction in amyloid beta40 levels in Beagle dog CSF; format: functional, Canis lupus familiaris
# [6] = Cardiotoxicity in human iPSC-derived cardiomyocytes assessed as calcium transport at 0.5 uM measured after 15 to 30 mins by fluorescence assay; format: ADME, cell-based; settings: stem cell-derived cardiomyocyte, time 15-30 min
# [7] = target: Sodium-dependent serotonin transporter (Homo sapiens, UniProt P31645); test: Displacement of [3H]-imipramine from recombinant human 5-HT transporter after 60 mins by scintillation counting analysis
# [8] = Chromatographic hydrophobicity index, log D of the compound at pH 7.4; format: physicochemical; settings: buffer
# [9] = Chromatographic hydrophobicity index, log D of the compound at pH 2.6; format: physicochemical; settings: buffer
# [10] = target: T1, Beta-secretase 2 (Homo sapiens, UniProt Q9Y5Z0); test: Displacement of [3H]-JNJ962 from BACE2 (unknown origin) expressed in HEK293 cell membrane assessed as inhibition constant by scintillation counting analysis; format: cell membranes
# T1 sequence (Q9Y5Z0 whole entry): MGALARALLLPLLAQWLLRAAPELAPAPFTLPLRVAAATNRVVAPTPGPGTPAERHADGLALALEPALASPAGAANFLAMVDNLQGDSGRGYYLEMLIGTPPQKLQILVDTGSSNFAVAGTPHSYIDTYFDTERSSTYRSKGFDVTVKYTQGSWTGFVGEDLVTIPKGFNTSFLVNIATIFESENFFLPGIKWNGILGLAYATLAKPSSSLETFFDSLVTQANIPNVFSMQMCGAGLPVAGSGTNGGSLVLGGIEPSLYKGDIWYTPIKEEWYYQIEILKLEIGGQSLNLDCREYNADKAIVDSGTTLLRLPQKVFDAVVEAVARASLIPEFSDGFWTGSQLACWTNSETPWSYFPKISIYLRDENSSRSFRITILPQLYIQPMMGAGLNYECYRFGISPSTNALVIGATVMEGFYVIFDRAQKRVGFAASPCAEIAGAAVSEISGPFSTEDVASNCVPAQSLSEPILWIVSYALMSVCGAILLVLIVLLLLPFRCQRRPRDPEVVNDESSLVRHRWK
# [11] = target: Cathepsin D (Homo sapiens, UniProt P07339); test: Inhibition of human cathepsin D incubated for 3.5 hrs by fluorescence assay
# [12] = target: T2, Muscarinic acetylcholine receptor M1 (Homo sapiens, UniProt P11229); test: Displacement of [3H]-pirenzepine from human recombinant muscarinic 1 receptor after 60 mins by scintillation counting analysis
# T2 sequence (P11229 whole entry): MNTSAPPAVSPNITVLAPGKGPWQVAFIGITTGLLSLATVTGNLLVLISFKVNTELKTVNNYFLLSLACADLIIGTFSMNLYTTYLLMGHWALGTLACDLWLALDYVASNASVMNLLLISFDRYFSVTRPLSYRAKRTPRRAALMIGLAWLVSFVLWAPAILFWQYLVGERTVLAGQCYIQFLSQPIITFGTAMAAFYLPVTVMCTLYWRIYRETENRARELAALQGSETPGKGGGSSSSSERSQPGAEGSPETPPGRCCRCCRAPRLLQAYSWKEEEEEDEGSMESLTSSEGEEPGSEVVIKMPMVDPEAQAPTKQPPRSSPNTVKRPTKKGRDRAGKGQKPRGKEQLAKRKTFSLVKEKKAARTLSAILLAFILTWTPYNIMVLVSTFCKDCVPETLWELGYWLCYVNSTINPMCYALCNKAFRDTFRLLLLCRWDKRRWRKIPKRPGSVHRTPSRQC
# [13] = Fraction unbound in rat brain homogenate at 5 uM incubated for 5 hrs by HPLC-MS/MS analysis; format: ADME, tissue-based
# [14] = target: T3, Adenosine receptor A1 (Homo sapiens, UniProt P30542); test: Displacement of [3H]-CCPA from human recombinant adenosine A1 receptor after 60 mins by scintillation counting analysis
# T3 sequence (P30542 whole entry): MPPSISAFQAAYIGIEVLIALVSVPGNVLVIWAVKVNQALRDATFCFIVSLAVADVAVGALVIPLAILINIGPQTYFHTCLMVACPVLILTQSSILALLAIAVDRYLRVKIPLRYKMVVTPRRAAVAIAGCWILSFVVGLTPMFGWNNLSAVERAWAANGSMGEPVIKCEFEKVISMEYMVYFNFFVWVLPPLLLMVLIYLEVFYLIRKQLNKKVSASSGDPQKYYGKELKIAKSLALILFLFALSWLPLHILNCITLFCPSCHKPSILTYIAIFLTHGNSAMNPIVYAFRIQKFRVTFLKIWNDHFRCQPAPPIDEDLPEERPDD
# [15] = species: Homo sapiens; test: Selectivity index, ratio of IC50 for inhibition of BACE2 (unknown origin) to IC50 for inhibition of BACE1 (1 to 454 residues) (unknown origin)
# [16] = Cardiotoxicity in human iPSC-derived cardiomyocytes assessed as calcium transport at 0.2 uM measured after 15 to 30 mins; format: ADME, cell-based; settings: stem cell-derived cardiomyocyte, time 15-30 min
# [17] = target: T1, Beta-secretase 2; test: Inhibition of BACE2 (unknown origin) using APP harboring Swedish Lys-Met/Asn-Leu mutant-derived peptide as substrate incubated for 2 hrs by FRET assay
# [18] = target: T4, Cytochrome P450 1A2 (Homo sapiens, UniProt P05177); test: Reversible inhibition of human CYP1A2; format: ADME
# T4 sequence (P05177 whole entry): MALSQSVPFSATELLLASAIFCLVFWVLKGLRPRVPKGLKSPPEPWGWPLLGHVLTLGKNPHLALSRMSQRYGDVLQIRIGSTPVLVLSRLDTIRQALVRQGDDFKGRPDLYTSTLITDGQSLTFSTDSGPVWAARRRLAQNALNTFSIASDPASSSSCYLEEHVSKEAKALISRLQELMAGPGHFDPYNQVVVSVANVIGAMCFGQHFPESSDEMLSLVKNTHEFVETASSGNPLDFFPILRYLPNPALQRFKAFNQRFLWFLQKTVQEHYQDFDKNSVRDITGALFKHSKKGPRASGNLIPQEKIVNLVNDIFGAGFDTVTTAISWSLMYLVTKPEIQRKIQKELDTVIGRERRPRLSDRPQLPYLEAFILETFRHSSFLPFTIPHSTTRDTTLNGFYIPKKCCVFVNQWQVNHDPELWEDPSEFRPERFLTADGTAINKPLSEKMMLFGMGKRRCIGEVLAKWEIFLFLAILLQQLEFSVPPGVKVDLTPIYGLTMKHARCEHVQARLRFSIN
# [19] = Plasma protein binding in dog assessed as unbound fraction at 5 uM after 4.5 hrs by HPLC-MS/MS analysis; format: ADME, cell-free, Canis lupus familiaris
# [20] = target: Cytochrome P450 2C19 (Homo sapiens, UniProt P33261); test: Reversible inhibition of human CYP2C19; format: ADME
# [21] = Plasma protein binding in human assessed as unbound fraction at 5 uM after 4.5 hrs by HPLC-MS/MS analysis; format: ADME, cell-free
# Sequence of Cytochrome P450 2C19 (P33261 whole entry): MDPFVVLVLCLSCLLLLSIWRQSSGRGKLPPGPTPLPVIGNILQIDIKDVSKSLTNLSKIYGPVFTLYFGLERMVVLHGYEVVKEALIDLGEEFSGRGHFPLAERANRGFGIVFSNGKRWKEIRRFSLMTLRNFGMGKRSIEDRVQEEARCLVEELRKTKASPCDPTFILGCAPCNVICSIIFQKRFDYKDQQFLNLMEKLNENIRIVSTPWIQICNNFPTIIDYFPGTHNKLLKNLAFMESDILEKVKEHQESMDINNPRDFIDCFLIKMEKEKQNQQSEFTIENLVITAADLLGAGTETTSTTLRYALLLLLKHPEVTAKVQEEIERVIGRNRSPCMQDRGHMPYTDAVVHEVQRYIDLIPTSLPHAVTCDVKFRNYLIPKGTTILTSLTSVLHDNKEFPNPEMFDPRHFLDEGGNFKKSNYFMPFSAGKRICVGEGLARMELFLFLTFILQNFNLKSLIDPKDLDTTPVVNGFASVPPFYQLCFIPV
# Sequence of Cathepsin D (P07339 65-162 limits assumed): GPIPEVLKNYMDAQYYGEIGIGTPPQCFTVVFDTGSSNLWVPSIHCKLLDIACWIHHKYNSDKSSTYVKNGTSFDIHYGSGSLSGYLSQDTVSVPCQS
# Sequence of Cathepsin D (P07339 169-412 limits assumed): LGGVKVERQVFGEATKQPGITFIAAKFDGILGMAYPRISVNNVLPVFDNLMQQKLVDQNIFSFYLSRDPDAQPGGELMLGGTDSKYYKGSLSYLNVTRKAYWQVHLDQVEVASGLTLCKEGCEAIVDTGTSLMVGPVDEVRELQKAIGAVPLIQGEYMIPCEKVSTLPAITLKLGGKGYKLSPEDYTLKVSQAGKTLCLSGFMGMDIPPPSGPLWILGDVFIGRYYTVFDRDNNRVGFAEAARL
# Sequence of Sodium-dependent serotonin transporter (P31645 whole entry): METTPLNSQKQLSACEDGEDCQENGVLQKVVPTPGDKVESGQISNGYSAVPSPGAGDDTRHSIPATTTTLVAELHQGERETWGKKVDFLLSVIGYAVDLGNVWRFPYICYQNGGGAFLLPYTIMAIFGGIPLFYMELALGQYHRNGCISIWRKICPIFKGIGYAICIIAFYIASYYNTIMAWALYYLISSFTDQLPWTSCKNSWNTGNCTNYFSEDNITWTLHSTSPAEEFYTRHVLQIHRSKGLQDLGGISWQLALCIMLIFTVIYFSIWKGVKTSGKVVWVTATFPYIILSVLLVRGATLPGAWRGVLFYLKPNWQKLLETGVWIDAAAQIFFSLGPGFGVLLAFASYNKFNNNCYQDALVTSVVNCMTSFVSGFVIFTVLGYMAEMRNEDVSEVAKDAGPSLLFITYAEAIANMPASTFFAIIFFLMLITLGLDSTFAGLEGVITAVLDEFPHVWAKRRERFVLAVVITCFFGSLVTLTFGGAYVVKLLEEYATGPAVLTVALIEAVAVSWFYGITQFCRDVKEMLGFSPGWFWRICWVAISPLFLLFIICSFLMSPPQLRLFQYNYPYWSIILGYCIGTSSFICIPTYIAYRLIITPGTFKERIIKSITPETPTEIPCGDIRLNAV
# Sequence of Voltage-gated inwardly rectifying potassium channel KCNH2 (Q12809 whole entry): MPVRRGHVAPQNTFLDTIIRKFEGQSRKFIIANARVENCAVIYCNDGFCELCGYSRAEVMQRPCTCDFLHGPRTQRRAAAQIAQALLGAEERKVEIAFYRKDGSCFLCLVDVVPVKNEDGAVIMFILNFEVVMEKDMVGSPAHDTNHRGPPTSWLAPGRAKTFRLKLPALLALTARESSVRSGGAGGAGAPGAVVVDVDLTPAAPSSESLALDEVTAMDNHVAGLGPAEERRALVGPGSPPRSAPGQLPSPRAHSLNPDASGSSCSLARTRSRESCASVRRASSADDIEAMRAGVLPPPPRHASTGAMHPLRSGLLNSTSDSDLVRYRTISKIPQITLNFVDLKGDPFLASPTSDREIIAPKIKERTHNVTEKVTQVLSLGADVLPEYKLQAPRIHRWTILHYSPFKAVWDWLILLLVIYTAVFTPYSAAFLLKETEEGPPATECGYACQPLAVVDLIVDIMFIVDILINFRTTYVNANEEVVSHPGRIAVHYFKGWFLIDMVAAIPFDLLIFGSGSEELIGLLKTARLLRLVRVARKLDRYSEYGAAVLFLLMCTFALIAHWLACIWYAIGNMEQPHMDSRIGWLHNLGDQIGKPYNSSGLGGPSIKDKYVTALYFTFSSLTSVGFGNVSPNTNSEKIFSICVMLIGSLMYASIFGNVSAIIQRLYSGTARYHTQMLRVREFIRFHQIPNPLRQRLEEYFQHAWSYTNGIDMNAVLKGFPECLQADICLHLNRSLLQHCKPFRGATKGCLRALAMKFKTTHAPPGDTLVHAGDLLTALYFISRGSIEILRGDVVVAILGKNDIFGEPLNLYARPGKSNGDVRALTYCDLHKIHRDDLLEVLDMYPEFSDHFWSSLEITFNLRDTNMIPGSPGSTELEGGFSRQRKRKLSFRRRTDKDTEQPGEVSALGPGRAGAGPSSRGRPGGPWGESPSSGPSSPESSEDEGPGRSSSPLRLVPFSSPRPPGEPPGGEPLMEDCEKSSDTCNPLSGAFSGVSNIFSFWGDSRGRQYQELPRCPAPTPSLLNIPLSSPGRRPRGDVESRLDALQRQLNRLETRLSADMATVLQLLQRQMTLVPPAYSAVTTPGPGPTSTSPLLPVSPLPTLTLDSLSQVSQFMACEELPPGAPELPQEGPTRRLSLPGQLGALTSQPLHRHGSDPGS
compound,measurement,setting,value
CCS(=O)(=O)[C@]1(C)CC[C@@](CF)(c2cc(NC(=O)c3cc4c(cn3)OC(F)(F)O4)ccc2F)N=C1N,IC50,[1],1.2 µM
same,Activity,[2],Not Active
same,microsomal CLint,[3],< 7.7 µL/min/mg
same,IC50,[4],8.3 µM
same,EC80,[5],0.0425 µg/mL
same,Activity,[6],Non-Toxic
same,Ki,[7],1.1 µM
same,chromatographic logD,[8],3.08
same,chromatographic logD,[9],0.89
same,Ki,[10],0.05 µM
same,IC50,[11],> 100 µM
same,Ki,[12],7.2 µM
same,"fraction unbound at 5 h, 5 µM",[13],0.014
same,Ki,[14],7.4 µM
same,Ratio IC50,[15],71
same,Activity,[16],Non-Toxic
same,IC50,[17],0.195 µM
same,IC50,[18],14.8 µM
same,"fraction unbound at 4.5 h, 5 µM",[19],0.122
same,IC50,[20],19.5 µM
same,"fraction unbound at 4.5 h, 5 µM",[21],0.063
